# Experimental data from patent US20060052283A1, “The Sperm Binding Ligand HIPRTY and Its Involvement in Embryo Cleavage” (priority 2004, published 2006).
# System: mouse sperm
# Assay: Phage combinatorial peptide library screening of intact live sperm
# Conditions: live CB6F1 mouse sperm, 4 rounds of binding, amplification and selection, Ph.D-7 and Ph.D-12 libraries
# Procedure: A mouse sperm suspension was isolated from cauda epididymides of fertile male CB6F1 mice. Briefly, the epididymides and vas deferens were dissected in a 35 mm dish containing 5 ml of CZB (pre-equilibrated at 37° C. and 5% CO2) and gently compressed to release sperm. Following a 10 minute incubation period, the epididimydes were removed and the sperm suspension incubated for a further 30 minute period. A 500 ul aliquot of the sperm suspension was removed from the top layer of media and placed in a 1.5 ml centrifuge tube. A 3 ul volume of phage combinatorial peptide library was added to this tube and the suspension incubated for 1 hour at 37 degrees. Following incubation, the sperm suspension was washed as follows. The suspension was centrifuged in a tabletop microcentrifuge at maximum speed for 1 minute and the majority of the supernatant removed. The remaining volume was re-suspended in 1 ml of media via pipetting and separated into two 500 ul aliquots in two 15 ml centrifuge tubes. A further 14 ml of CZB wash media was added to these tubes followed by 15 min incubation at room temperature. The tubes were centrifuged at 1000 g for 5 minutes and the supernatant removed down to an approximate 50 ul volume. […]
# Phage DNA was isolated by several different methods. […] DNA quality and quantity was determined via agarose gel electrophoresis on vertical mini-gels with novel illumination and filters. […]
substance,measurement,value
HIPRTY,binding sequence selected from combinatorial libraries,binding sequence of mouse sperm
